Read-outs that look alike come from different tables or passages of the source.
Columns and labels:
[1] = Liver microsomes stability, mouse; settings: for half-life at 2 μM / microsomal CLint at 2 μM: male, mouse; for half-life at 2 μM / microsomal CLint at 2 μM / Remaining Percentage (%) after 60 min, Mouse, With cofactors / Remaining Percentage (%) after 60 min, Mouse, Without cofactors: mouse liver microsomes
Description: 40 μL of 10 mM NADPH solution was added to each well. The final concentration of NADPH was 1 mM. The negative control samples were prepared by replacing NADPH with 40 μL of ultra-pure H2O. Samples were prepared in duplicate. Negative controls were prepared in singlet.
This study was performed in duplicate.
LC/MS analysis was performed for all samples from this study using a Shimadzu liquid chromatograph separation system equipped with degasser DGU-20A5R; solvent delivery unit LC-30AD; system controller SIL-30AC; column oven CTO-30A; CTC Analytics HTC PAL System. Mass spectrometric analysis was performed using a Triple Quad™ 5500 instrument.
(§1) All calculations were carried out using Microsoft Excel.
All calculations were carried out using Microsoft Excel. Peak areas were determined from extracted ion chromatograms.

[2] = Plasma stability, rat; format: in vitro ADME
Description: (§2) • a. […] The final concentration of organic solvents was 0.5%. The assay was performed in duplicated. • b.
as §1

[3] = Plasma stability, dog; format: in vitro ADME; settings: for half-life: 37° C.
Description: as §2, §1

[4] = Plasma stability, human; format: in vitro ADME
Description: as §2, §1

[5] = Plasma stability, mouse; format: in vitro ADME
Description: as §2, §1

[6] = molecular target: T1, human 5-HT1A receptor (Homo sapiens, UniProt P08908); assay: Human 5-HT1A radioligand binding assay ([3H]-8-Hydroxy-DPAT)
T1 sequence (P08908 1-422): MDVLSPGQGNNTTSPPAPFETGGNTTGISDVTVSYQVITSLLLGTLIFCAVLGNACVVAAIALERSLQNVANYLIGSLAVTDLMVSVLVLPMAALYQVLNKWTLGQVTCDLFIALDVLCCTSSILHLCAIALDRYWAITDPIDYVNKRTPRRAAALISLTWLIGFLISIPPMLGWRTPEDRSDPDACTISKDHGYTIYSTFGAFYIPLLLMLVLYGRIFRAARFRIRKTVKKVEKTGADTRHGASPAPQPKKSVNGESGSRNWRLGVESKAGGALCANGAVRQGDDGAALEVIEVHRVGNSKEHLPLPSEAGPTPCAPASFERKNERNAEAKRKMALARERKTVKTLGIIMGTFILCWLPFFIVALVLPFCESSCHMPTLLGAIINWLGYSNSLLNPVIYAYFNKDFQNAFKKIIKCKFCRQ
Description: The objective of this study was to evaluate the binding properties of test compounds on 5-hydroxytryptamine receptor 1A (5-HT1A).
• 1. The assay buffer was prepared following the table below.
• 2. 8 doses of reference and test compounds were prepared starting from 10 mM stock solution as required by 5-fold serial dilutions with 100% (v/v) DMSO. • 3. UniFilter-96 GF/B plate was pretreated: • i. 50 μl/well of 0.5% (v/v) PEI was added to UniFilter-96 GF/B plates. The plates were sealed and incubated at 4° C. for 3 hrs. • ii. After incubation, the plates were washed 3 times with ice-cold wash buffer (50 mM Tris, pH7.4). • 4. Assay plate was prepared: • i. Cell membrane was diluted with assay buffer and 100 μl/well was added to 96 round well plates to reach a concentration of 20 μg/well. • ii. 8 concentrations of reference or test compounds were prepared and 50 μl/well was added to 96 round deep well plates. • iii. [3H]-8-Hydroxy-DPAT was diluted with assay buffer to 2 nM (4×final concentration) and 50 μl/well was added to 96 round well plates. • 5. The plate was centrifuged at 1000 rpm for 30 secs and then agitated at 600 rpm, R.T. for 5 min. • 6. The plates were sealed and the plate was incubated at 27° C. for 90 min. • 7. The incubation was stopped by vacuum filtration onto GF/B filter plates followed by 4 times washing with ice-cold wash buffer (50 mM Tris, pH7.4). • 8. The plates were dried at 37° C. for 45 min. • 9. The filter plates were sealed and 40 μl/well of scintillation cocktail was added. • 10. The plate was read by using a Microbeta^2 microplate counter.
• 1. For reference and test compounds, the results were expressed as % Inhibition, using the normalization equation: N=100−100×(U−C2)/(C1−C2), where U is the unknown value, C1 is the average of high controls, and C2 is the average of low controls. • 2. The IC50 was determined by fitting percentage of inhibition as a […] of compound concentrations with Hill equation using XLfit.

Row | Structure (SMILES) | half-life at 2 μM [1] [min] | microsomal CLint at 2 μM [1] [µL/min/mg] | Remaining Percentage (%) after 60 min, Mouse, With cofactors [1] [%] | Remaining Percentage (%) after 60 min, Mouse, Without cofactors [1] [%] | Remaining Percentage (%) 0 min [2] [%] | Remaining Percentage (%) 30 min [2] [%] | Remaining Percentage (%) 60 min [2] [%] | Remaining Percentage (%) 120 min [2] [%] | Remaining Percentage (%) 180 min [2] [%] | Remaining Percentage (%) 240 min [2] [%] | Remaining Percentage (%) 0 min [3] [%] | half-life [3] [min] | Remaining Percentage (%) 30 min [3] [%] | Remaining Percentage (%) 60 min [3] [%] | Remaining Percentage (%) 120 min [3] [%] | Remaining Percentage (%) 180 min [3] [%] | Remaining Percentage (%) 240 min [3] [%] | Remaining Percentage (%) 0 min [4] [%] | Remaining Percentage (%) 30 min [4] [%] | IC50 [6] [nM] | further results
1 | [2H]C([2H])(c1c[nH]c2cccc(OC(=O)CCCC(=O)Oc3cccc4[nH]cc(C([2H])([2H])[C@H]5CCCN5C([2H])([2H])[2H])c34)c12)[C@H]1CCCN1C([2H])([2H])[2H] [Compound I-22, bis(3-(((R)-1-(methyl-d3)pyrrolidin-2-yl)methyl-d2)-1H-indol-4-yl) glutarate] | < 4.51 | > 307 | 0 | 0 | 100.00 | 0.00 | 0.00 | 0.00 | 0.00 | 0.00 | 100.00 | 24.9 | 39.05 | 14.86 | 3.51 | 0.92 | 0.56 | 100.00 | 0.00 | 124 | Remaining Percentage (%) 60 min [4]: 0.00%; Remaining Percentage (%) 120 min [4]: 0.00%; Remaining Percentage (%) 180 min [4]: 0.00%; Remaining Percentage (%) 240 min [4]: 0.00%; Remaining Percentage (%) 0 min [5]: 100.00%; Remaining Percentage (%) 30 min [5]: 0.00%; Remaining Percentage (%) 60 min [5]: 0.00%; Remaining Percentage (%) 120 min [5]: 0.00%; Remaining Percentage (%) 180 min [5]: 0.00%; Remaining Percentage (%) 240 min [5]: 0.00%
2 | CN1CCC[C@@H]1Cc1c[nH]c2cccc(O)c12 [Compound 10, (R)-3-((1-methylpyrrolidin-2-yl)methyl)-1H-indol-4-ol] |  |  |  |  |  |  |  |  |  |  |  |  |  |  |  |  |  |  |  | 148 | 
3 | [2H]C([2H])(c1c[nH]c2cccc(O)c12)[C@H]1CCCN1C([2H])([2H])[2H] [Compound 13, (R)-3-((1-(methyl-d3)pyrrolidin-2-yl)methyl-d2)-1H-indol-4-ol] |  |  |  |  |  |  |  |  |  |  |  |  |  |  |  |  |  |  |  | 156 | 
4 | CN(C)CCc1c[nH]c2cccc(O)c12 [Psilocin, 4-hydroxy-N,N-dimethyltryptamine, reference compound] |  |  | 96.89 |  |  |  |  |  |  |  |  |  |  |  |  |  |  |  |  |  | t1/2 Mouse ([1]; mouse liver microsomes with NADPH, 2 μM): 141.71 min; IC50 ([6]; radioligand binding, [3H]-8-Hydroxy-DPAT, read-out: h5-HT1A, IC50): 196 nM
5 | CN1CCC[C@@H]1Cc1c[nH]c2cccc(OC(=O)CCCC(=O)Oc3cccc4[nH]cc(C[C@H]5CCCN5C)c34)c12 [Compound I-13, Bis(3-(((R)-1-methylpyrrolidin-2-yl)methyl)-1H-indol-4-yl) glutarate] | < 4.51 | > 307 | 0 | 0 | 100.00 | 0.00 | 0.00 | 0.00 | 0.00 | 0.00 | 100.00 | 49.2 | 67.21 | 44.90 | 15.17 | 8.32 | 3.48 | 100.00 | 0.00 | 154 | Remaining Percentage (%) 60 min [4]: 0.00%; Remaining Percentage (%) 120 min [4]: 0.00%; Remaining Percentage (%) 180 min [4]: 0.00%; Remaining Percentage (%) 240 min [4]: 0.00%; Remaining Percentage (%) 0 min [5]: 100.00%; Remaining Percentage (%) 30 min [5]: 0.00%; Remaining Percentage (%) 60 min [5]: 0.00%; Remaining Percentage (%) 120 min [5]: 0.00%; Remaining Percentage (%) 180 min [5]: 0.00%; Remaining Percentage (%) 240 min [5]: 0.00%
